Measured values as given in ChEMBL document CHEMBL3045835, “Comparative study of conventional and microwave-assisted synthesis of some Schiff bases and their potential as antimicrobial agents” (2012).
Values after ≈ are worked out from the molar mass of the structure shown.

What was measured:
Assay type in all cases: functional
Escherichia coli [1] = test: Antibacterial activity against Escherichia coli MTCC 1573 after 24 hr by broth dilution method; settings: MTCC 1573, 24 h
Penicillium chrysogenum [2] = test: Antifungal activity against Penicillium chrysogenum MTCC 161 at 1500 ug/ml after 18 hr by cup-plate method; settings: MTCC 161, 18 h, read-out: DIZ
Micrococcus luteus [3] = test: Antibacterial activity against Micrococcus luteus MTCC 1538 at 100 ug/ml after 18 hr by cup-plate method; settings: MTCC 1538, 18 h, read-out: DIZ
Micrococcus luteus [4] = test: Antibacterial activity against Micrococcus luteus MTCC 1538 at 1500 ug/ml after 18 hr by cup-plate method; settings: MTCC 1538, 18 h, read-out: DIZ
Bacillus subtilis [5] = test: Antibacterial activity against Bacillus subtilis MTCC 441 after 24 hr by broth dilution method; settings: MTCC 441, 24 h
Staphylococcus aureus [6] = test: Antibacterial activity against Staphylococcus aureus MTCC 1430 at 200 ug/ml after 18 hr by cup-plate method; settings: MTCC 1430, 18 h, read-out: DIZ
Pseudomonas fluorescens [7] = test: Antibacterial activity against Pseudomonas fluorescens MTCC 2421 at 500 ug/ml after 18 hr by cup-plate method; settings: MTCC 2421, 18 h, read-out: DIZ
Bacillus subtilis [8] = test: Antibacterial activity against Bacillus subtilis MTCC 441 at 100 ug/ml after 18 hr by cup plate method; settings: MTCC 441, 18 h, read-out: DIZ
Escherichia coli [9] = test: Antibacterial activity against Escherichia coli MTCC 1573 at 500 ug/ml after 18 hr by cup-plate method; settings: MTCC 1573, 18 h, read-out: DIZ
Bacillus pumilus [10] = test: Antibacterial activity against Bacillus pumilus MTCC 1456 at 500 ug/ml after 18 hr by cup-plate method; settings: MTCC 1456, 18 h, read-out: DIZ
Aspergillus niger [11] = test: Antifungal activity against Aspergillus niger MTCC 2546 at 1000 ug/ml after 18 hr by cup-plate method; settings: MTCC 2546, 18 h, read-out: DIZ
Penicillium chrysogenum [12] = test: Antifungal activity against Penicillium chrysogenum MTCC 161 at 200 ug/ml after 18 hr by cup-plate method; settings: MTCC 161, 18 h, read-out: DIZ
Pseudomonas aeruginosa [13] = test: Antibacterial activity against Pseudomonas aeruginosa MTCC 424 at 200 ug/ml after 18 hr by cup-plate method; settings: MTCC 424, 18 h, read-out: DIZ
Bacillus pumilus [14] = test: Antibacterial activity against Bacillus pumilus MTCC 1456 after 24 hr by broth dilution method; settings: MTCC 1456, 24 h
Staphylococcus aureus [15] = test: Antibacterial activity against Staphylococcus aureus MTCC 1430 at 1000 ug/ml after 18 hr by cup-plate method; settings: MTCC 1430, 18 h, read-out: DIZ
Aspergillus niger [16] = test: Antifungal activity against Aspergillus niger MTCC 2546 at 500 ug/ml after 18 hr by cup-plate method; settings: MTCC 2546, 18 h, read-out: DIZ
Bacillus subtilis [17] = test: Antibacterial activity against Bacillus subtilis MTCC 441 at 200 ug/ml after 18 hr by cup plate method; settings: MTCC 441, 18 h, read-out: DIZ
Pseudomonas aeruginosa [18] = test: Antibacterial activity against Pseudomonas aeruginosa MTCC 424 at 500 ug/ml after 18 hr by cup-plate method; settings: MTCC 424, 18 h, read-out: DIZ
Bacillus subtilis [19] = test: Antibacterial activity against Bacillus subtilis MTCC 441 at 1000 ug/ml after 18 hr by cup plate method; settings: MTCC 441, 18 h, read-out: DIZ
Penicillium chrysogenum [20] = test: Antifungal activity against Penicillium chrysogenum MTCC 161 at 100 ug/ml after 18 hr by cup-plate method; settings: MTCC 161, 18 h, read-out: DIZ
Micrococcus luteus [21] = test: Antibacterial activity against Micrococcus luteus MTCC 1538 at 1000 ug/ml after 18 hr by cup-plate method; settings: MTCC 1538, 18 h, read-out: DIZ
Staphylococcus aureus [22] = test: Antibacterial activity against Staphylococcus aureus MTCC 1430 at 1500 ug/ml after 18 hr by cup-plate method; settings: MTCC 1430, 18 h, read-out: DIZ
Pseudomonas fluorescens [23] = test: Antibacterial activity against Pseudomonas fluorescens MTCC 2421 at 1000 ug/ml after 18 hr by cup-plate method; settings: MTCC 2421, 18 h, read-out: DIZ
Micrococcus luteus [24] = test: Antibacterial activity against Micrococcus luteus MTCC 1538 at 500 ug/ml after 18 hr by cup-plate method; settings: MTCC 1538, 18 h, read-out: DIZ
Micrococcus luteus [25] = test: Antibacterial activity against Micrococcus luteus MTCC 1538 at 200 ug/ml after 18 hr by cup-plate method; settings: MTCC 1538, 18 h, read-out: DIZ
Penicillium chrysogenum [26] = test: Antifungal activity against Penicillium chrysogenum MTCC 161 after 24 hr by broth dilution method; settings: MTCC 161, 24 h
Staphylococcus aureus [27] = test: Antibacterial activity against Staphylococcus aureus MTCC 1430 at 500 ug/ml after 18 hr by cup-plate method; settings: MTCC 1430, 18 h, read-out: DIZ

MIC (Escherichia coli [1]): 200 mg/L (≈ 812 µM)
MIC (Bacillus subtilis [5]): 50 mg/L (≈ 203 µM)
MIC (Bacillus pumilus [14]): 200 mg/L (≈ 812 µM)
MIC (Penicillium chrysogenum [26]): 400 mg/L (≈ 1620 µM)
Compound: Cc1cccnc1/N=C/c1cccc2ccccc12
zone of inhibition at 1500 µg/mL (Penicillium chrysogenum [2]): 18 mm
zone of inhibition at 100 µg/mL (Micrococcus luteus [3]): 16 mm
zone of inhibition at 1500 µg/mL (Micrococcus luteus [4]): 26 mm
zone of inhibition at 200 µg/mL (Staphylococcus aureus [6]): 13 mm
zone of inhibition at 500 µg/mL (Pseudomonas fluorescens [7]): 22 mm
zone of inhibition at 100 µg/mL (Bacillus subtilis [8]): 12 mm
zone of inhibition at 500 µg/mL (Escherichia coli [9]): 15 mm
zone of inhibition at 500 µg/mL (Bacillus pumilus [10]): 18 mm
zone of inhibition at 1000 µg/mL (Aspergillus niger [11]): 20 mm
zone of inhibition at 200 µg/mL (Penicillium chrysogenum [12]): 13 mm
zone of inhibition at 200 µg/mL (Pseudomonas aeruginosa [13]): 13 mm
zone of inhibition at 1000 µg/mL (Staphylococcus aureus [15]): 18 mm
zone of inhibition at 500 µg/mL (Aspergillus niger [16]): 19 mm
zone of inhibition at 200 µg/mL (Bacillus subtilis [17]): 13 mm
zone of inhibition at 500 µg/mL (Pseudomonas aeruginosa [18]): 14 mm
zone of inhibition at 1000 µg/mL (Bacillus subtilis [19]): 18 mm
zone of inhibition at 100 µg/mL (Penicillium chrysogenum [20]): 11 mm
zone of inhibition at 1000 µg/mL (Micrococcus luteus [21]): 24 mm
zone of inhibition at 1500 µg/mL (Staphylococcus aureus [22]): 20 mm
zone of inhibition at 1000 µg/mL (Pseudomonas fluorescens [23]): 23 mm
zone of inhibition at 500 µg/mL (Micrococcus luteus [24]): 22 mm
zone of inhibition at 200 µg/mL (Micrococcus luteus [25]): 18 mm
zone of inhibition at 500 µg/mL (Staphylococcus aureus [27]): 15 mm
